According to patent US12662464B2, “Degraders of cyclin-dependent kinase 12 (CDK12) and uses thereof” (DANA-FARBER CANCER INSTITUTE, INC., priority 2019, dated 2026):
Each block holds one compound with its values, some of them ahead of it.

What was measured:
CDK12 = target: T1, CDK12 (Homo sapiens, UniProt Q9NYV4); experiment: CDK12 degradation by Western blotting; type: cell-based; conditions: degradation of CDK12 at 100 nM
T1 construct: endogenous in cells; host or cells: Jurkat (human T-ALL)
Procedure: Cells treated with DMSO or with the CDK12 degraders BSJ-04-023, BSJ-04-071, BSJ-04-076, BSJ-04-077, BSJ-04-078, BSJ-04-079, and BSJ-04-100 at the indicated concentrations were collected and examined with Western blots at 6 hours.
Cells treated with DMSO or with the CDK12 degraders BSJ-04-023, BSJ-04-086, BSJ-04-089, BSJ-04-098, BSJ-04-099, and BSJ-04-100 at the indicated concentrations were collected and examined with Western blots at 6 hours.
Assays for the degradation of CDK12 by exemplary compounds of Formula (I) were conducted. The results for the assays for the degradation of CDK12 by exemplary CDK12 degrader compounds depicted in Table 1 are shown in FIGS. 1-3.

[1] = Pharmacokinetic study, single IV injection in mice; type: in vivo; conditions: 2 mg/kg IV, male C57BI/6 mice, plasma
Procedure: Standard pharmacokinetic parameters were determined by administration of exemplary compound BSJ-05-063 to male C57BI/6 mice, and conducting standard pharmacokinetic studies. A single 2 mg/kg intravenous (IV) injection of compound BSJ-05-063 solution in […] DMSO/Cremophor EL® (oxirane, propane-1,2,3-triol)/water was delivered, and the pharmacokinetic parameters were evaluated. The plasma concentrations of BSJ-05-063 were reported at each of the 8 time points (5 minutes, 15 minutes, 30 minutes, 1 hours, 2 hours, 4 hours, 6 hours, and 8 hours post-dosing) are the average values from 3 test animals (male C57BI/6 mice).

CDK12, CDK13, CDK9 = experiment: Rescue of degradation by pre-treatment, Western blot in Jurkat and Molt 4 cells; type: cell-based, human; conditions: 2 hour pre-treatment with THZ-5-31, Carfilzomib, thalidomide or MLN4924, then 250 nM for 6 hours
Procedure: FIGS. 1-3 show the degradation rescued by pre-treatment with Carlfilzomib and exemplary CDK12 irreversible inhibitor, THZ-5-31
The degradation of CDK12, CDK13, CDK9 was rescued by 2 hour pre-treatment with exemplary CDK12 inhibitor THZ-5-31, exemplary […] Carfilzomib (CFZ), thalidomide (Thal.) and MLN4924 (inhibitor of NEDD8-Activating Enzyme (NAE)) at the indicated concentrations before treatment with exemplary CDK12 inhibitor BSJ-0423 (BSJ-04-023) at 250 nM for 6 hours. BSJ-04-023 is of formula: […]

T1 sequence (Q9NYV4 whole entry): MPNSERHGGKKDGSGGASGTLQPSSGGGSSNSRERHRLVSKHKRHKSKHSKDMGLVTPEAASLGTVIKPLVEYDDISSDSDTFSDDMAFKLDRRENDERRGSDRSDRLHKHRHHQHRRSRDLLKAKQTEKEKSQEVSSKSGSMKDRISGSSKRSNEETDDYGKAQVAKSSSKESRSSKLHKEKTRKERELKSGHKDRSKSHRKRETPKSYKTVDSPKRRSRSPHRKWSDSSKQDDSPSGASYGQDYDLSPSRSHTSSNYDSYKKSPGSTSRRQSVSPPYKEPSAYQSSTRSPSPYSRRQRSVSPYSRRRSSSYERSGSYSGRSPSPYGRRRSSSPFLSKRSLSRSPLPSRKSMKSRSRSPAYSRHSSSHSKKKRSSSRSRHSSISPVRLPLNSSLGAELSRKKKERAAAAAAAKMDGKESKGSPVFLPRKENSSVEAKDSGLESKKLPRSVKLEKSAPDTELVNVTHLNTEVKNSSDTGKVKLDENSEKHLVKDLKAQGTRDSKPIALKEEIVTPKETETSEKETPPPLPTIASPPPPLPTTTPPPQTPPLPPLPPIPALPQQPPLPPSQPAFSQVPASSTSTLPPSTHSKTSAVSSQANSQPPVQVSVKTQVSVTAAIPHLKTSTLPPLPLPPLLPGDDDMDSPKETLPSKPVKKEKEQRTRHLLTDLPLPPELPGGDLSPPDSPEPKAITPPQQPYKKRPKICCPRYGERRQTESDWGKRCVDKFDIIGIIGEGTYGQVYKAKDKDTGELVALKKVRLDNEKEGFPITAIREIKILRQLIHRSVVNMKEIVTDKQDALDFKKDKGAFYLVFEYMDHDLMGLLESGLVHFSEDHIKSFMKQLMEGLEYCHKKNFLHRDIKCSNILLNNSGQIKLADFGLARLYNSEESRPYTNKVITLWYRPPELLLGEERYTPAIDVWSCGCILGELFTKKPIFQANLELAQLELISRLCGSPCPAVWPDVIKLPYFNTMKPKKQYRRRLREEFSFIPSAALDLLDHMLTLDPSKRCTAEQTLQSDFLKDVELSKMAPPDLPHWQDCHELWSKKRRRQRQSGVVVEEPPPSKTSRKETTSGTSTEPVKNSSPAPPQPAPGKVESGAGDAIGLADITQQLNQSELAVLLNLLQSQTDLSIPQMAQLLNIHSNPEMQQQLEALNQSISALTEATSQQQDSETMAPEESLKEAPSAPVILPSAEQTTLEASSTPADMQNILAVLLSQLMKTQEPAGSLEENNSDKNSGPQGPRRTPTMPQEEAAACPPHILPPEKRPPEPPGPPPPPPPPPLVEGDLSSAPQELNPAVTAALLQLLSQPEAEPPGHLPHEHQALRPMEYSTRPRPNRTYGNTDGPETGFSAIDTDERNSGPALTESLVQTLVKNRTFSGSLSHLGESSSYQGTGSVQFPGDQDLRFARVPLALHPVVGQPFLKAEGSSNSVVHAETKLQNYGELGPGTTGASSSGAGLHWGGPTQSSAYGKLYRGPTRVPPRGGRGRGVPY
T1 sequence (O75909 whole entry partner): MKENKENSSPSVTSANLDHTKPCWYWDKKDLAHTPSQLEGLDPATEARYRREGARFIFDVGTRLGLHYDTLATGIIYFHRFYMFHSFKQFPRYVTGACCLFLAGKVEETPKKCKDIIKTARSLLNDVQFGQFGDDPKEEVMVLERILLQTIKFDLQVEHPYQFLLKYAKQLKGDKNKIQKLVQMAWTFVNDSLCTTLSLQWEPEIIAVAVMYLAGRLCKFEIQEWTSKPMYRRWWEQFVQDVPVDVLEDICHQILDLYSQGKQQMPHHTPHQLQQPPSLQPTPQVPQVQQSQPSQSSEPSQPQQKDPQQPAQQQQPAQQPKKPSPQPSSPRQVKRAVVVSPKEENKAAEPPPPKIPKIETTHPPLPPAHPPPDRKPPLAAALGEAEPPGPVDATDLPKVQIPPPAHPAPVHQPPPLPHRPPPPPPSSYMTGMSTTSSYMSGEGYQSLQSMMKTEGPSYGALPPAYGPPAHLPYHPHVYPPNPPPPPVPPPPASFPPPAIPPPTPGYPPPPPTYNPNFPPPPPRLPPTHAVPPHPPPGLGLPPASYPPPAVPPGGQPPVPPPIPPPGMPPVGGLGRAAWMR

SMILES: O=C(COc1cccc2c1C(=O)N(C1CCC(=O)NC1=O)C2=O)NCCOCCOCCOCCN1CCC[C@@H](Nc2ncc(Cl)c(-c3c[nH]c4ccccc34)n2)C1 (stereo partly drawn) [Compound 1-5, N-(2-(2-(2-(2-((R)-3-((5-chloro-4-(1H-indol-3-yl)pyrimidin-2-yl)amino)piperidin-1-yl)ethoxy)ethoxy)ethoxy)ethyl)-2-((2-(2,6-dioxopiperidin-3-yl)-1,3-dioxoisoindolin-4-yl)oxy)acetamide]
- CDK12 degradation activity (CDK12): ++ (“++” indicates 80% degradation)

SMILES: O=C(COc1cccc2c1C(=O)N(C1CCC(=O)NC1=O)C2=O)NCCCCCN1CCN(c2ccc(C(=O)N3CCC[C@@H](Nc4ncc(Cl)c(-c5c[nH]c6ccccc56)n4)C3)cc2)CC1 (stereo partly drawn) [Compound 1-9, N-(5-(4-(4-((R)-3-((5-chloro-4-(1H-indol-3-yl)pyrimidin-2-yl)amino)piperidine-1-carbonyl)phenyl)piperazin-1-yl)pentyl)-2-((2-(2,6-dioxopiperidin-3-yl)-1,3-dioxoisoindolin-4-yl)oxy)acetamide]
- CDK12 degradation activity (CDK12): ++ (“++” indicates 80% degradation)

SMILES: O=C(COc1cccc2c1C(=O)N(C1CCC(=O)NC1=O)C2=O)NCCCN1CCN(c2ccc(C(=O)N3CCC[C@@H](Nc4ncc(Cl)c(-c5c[nH]c6ccccc56)n4)C3)cc2)CC1 (stereo partly drawn) [Compound 1-10, N-(3-(4-(4-((R)-3-((5-chloro-4-(1H-indol-3-yl)pyrimidin-2-yl)amino)piperidine-1-carbonyl)phenyl)piperazin-1-yl)propyl)-2-((2-(2,6-dioxopiperidin-3-yl)-1,3-dioxoisoindolin-4-yl)oxy)acetamide]
- CDK12 degradation activity (CDK12): + (“+” indicates 60% degradation of CDK12 at 100 nM)

SMILES: CC(C)S(=O)(=O)c1ccccc1Nc1nc(N[C@@H]2CCCN(CCCCCCCNC(=O)COc3cccc4c3C(=O)N(C3CCC(=O)NC3=O)C4=O)C2)ncc1Cl (stereo partly drawn) [Compound 1-14, N-(7-((R)-3-((5-chloro-4-((2-(isopropylsulfonyl)phenyl)amino)pyrimidin-2-yl)amino)piperidin-1-yl)heptyl)-2-((2-(2,6-dioxopiperidin-3-yl)-1,3-dioxoisoindolin-4-yl)oxy)acetamide]
- CDK12 degradation activity (CDK12): +++ (“+++” indicates a greater than 90% degradation)

SMILES: Cc1ncsc1-c1ccc([C@H](C)NC(=O)[C@@H]2C[C@@H](O)CN2C(=O)[C@@H](NC(=O)CCOCCOCCOCCN2CCC[C@@H](Nc3ncc(Cl)c(Nc4ccccc4S(=O)(=O)C(C)C)n3)C2)C(C)(C)C)cc1 [Compound 1-16, (2S,4R)-1-((S)-14-(tert-butyl)-1-((R)-3-((5-chloro-4-((2-(isopropylsulfonyl)phenyl)amino)pyrimidin-2-yl)amino)piperidin-1-yl)-12-oxo-3,6,9-trioxa-13-azapentadecan-15-oyl)-4-hydroxy-N—((S)-1-(4-(4-methylthiazol-5-yl)phenyl)ethyl)pyrrolidine-2-carboxamide]
- CDK12 degradation activity (CDK12): +++ (“+++” indicates a greater than 90% degradation)

SMILES: O=C(COc1cccc2c1C(=O)N(C1CCC(=O)NC1=O)C2=O)NCCCCCCCN1CCC[C@@H](Nc2ncc(Cl)c(-c3c[nH]c4ccccc34)n2)C1 (stereo partly drawn) [Compound I-1, N-(7-((R)-3-((5-chloro-4-(1H-indol-3-yl)pyrimidin-2-yl)amino)piperidin-1-yl)heptyl)-2-((2-(2,6-dioxopiperidin-3-yl)-1,3-dioxoisoindolin-4-yl)oxy)acetamide]
- CDK12 degradation activity (CDK12): +++ (“+++” indicates a greater than 90% degradation)
- degradation of CDK12, CDK13, CDK9 after pre-treatment (CDK12, CDK13, CDK9): rescued

More lines, main results first:

- CDK12 degradation activity (CDK12): ++ (“++” indicates 80% degradation)
SMILES: O=C(COc1cccc2c1C(=O)N(C1CCC(=O)NC1=O)C2=O)NCCCCCCCN1CCC(C(=O)N2CCC[C@@H](Nc3ncc(Cl)c(-c4c[nH]c5ccccc45)n3)C2)CC1 (stereo partly drawn) [Compound 1-12, N-(7-(4-((R)-3-((5-chloro-4-(1H-indol-3-yl)pyrimidin-2-yl)amino)piperidine-1-carbonyl)piperidin-1-yl)heptyl)-2-((2-(2,6-dioxopiperidin-3-yl)-1,3-dioxoisoindolin-4-yl)oxy)acetamide]

- AUC % Extrap [1]: 6.27 % Extrap
- AUCINF_obs [1]: 368545 ng·min/mL
- Cl_obs [1]: 6.04 mL/min/kg
- MRTINF_obs [1]: 2.41 h
- T1/2 [1]: 2.21 h
- Tmax [1]: 4.8 min
- Vss_obs [1]: 0.84 L/kg
SMILES: Cc1ncsc1-c1ccc([C@H](C)NC(=O)[C@@H]2C[C@@H](O)CN2C(=O)[C@@H](NC(=O)CCCCCCCCCCN2CCC[C@@H](Nc3ncc(Cl)c(Nc4ccccc4S(=O)(=O)C(C)C)n3)C2)C(C)(C)C)cc1 [Compound 1-15, (2S,4R)-1-((S)-2-(11-((R)-3-((5-chloro-4-((2-(isopropylsulfonyl)phenyl)amino)pyrimidin-2-yl)amino)piperidin-1-yl)undecanamido)-3,3-dimethylbutanoyl)-4-hydroxy-N—((S)-1-(4-(4-methylthiazol-5-yl)phenyl)ethyl)pyrrolidine-2-carboxamide]
- CDK12 degradation activity (CDK12): +++ (“+++” indicates a greater than 90% degradation)

- CDK12 degradation activity (CDK12): ++ (“++” indicates 80% degradation)
SMILES: O=C(COc1cccc2c1C(=O)N(C1CCC(=O)NC1=O)C2=O)NCCCCCCN1CCC[C@@H](Nc2ncc(Cl)c(-c3c[nH]c4ccccc34)n2)C1 (stereo partly drawn) [Compound I-2, N-(6-((R)-3-((5-chloro-4-(1H-indol-3-yl)pyrimidin-2-yl)amino)piperidin-1-yl)hexyl)-2-((2-(2,6-dioxopiperidin-3-yl)-1,3-dioxoisoindolin-4-yl)oxy)acetamide]
